# Patent publication US11058650B2, “Fatty acid amides for the prevention and/or treatment of steatohepatitis” (FUNDACIÓN RÚBLICA ANDALUZA PARA LA INVESTIGACIÓN DE MÁLAGA …, priority 2014, dated 2021)
# “And” between values parts separate entries of the source, which are not always exact repeats. Equal entries are not always repeated. Where two headings read alike, the source gives them in different places.
# Legend:
# [1] = Body weight gain and food intake in Zucker rats, chronic treatment; format: in vivo, rat; settings: 5 mg/kg i.p. daily 15 days
# Experimental: (§1) All the experiments were carried out in obese (fa/fa) and thin (Fa/?) male Zucker rats 8-9 weeks of age. The animals were placed in individual cages in a room with controlled temperature, humidity and lighting (light/darkness cycles of 12 hours), and with free access to food and water (standard laboratory diet).
# (§2) OLHHA was dissolved in a vehicle containing 5% Tween 80 in saline and intraperitoneally (i.p.) administered at a dose of 5 mg/kg (volume of 1 ml/kg body weight) at the beginning of the light cycle (9:00 am-10:00 am) for 15 consecutive days. Two hours after the last injection, the animals were euthanized using sodium pentobarbital (50 mg/kg, i.p.) and blood and liver samples were extracted. The blood was centrifuged at 2100×g for 8 minutes at 4° C. and the obtained plasma was kept at −80° C. for subsequent analysis. The liver samples were also stored at −80° C.
# Animals received an injection (i.p.) of vehicle or OLHHA (5 mg/kg) daily for 15 consecutive days. For this experiment, 8 rats were used per group. The total body weight gain (g) and the accumulated food intake (g/kg of body weight) were evaluated daily.
# [2] = test system: Zucker rats; test: Liver fat content and plasma triglyceride level of Zucker rats; format: in vivo, rat; settings: obese Zucker rats, 5 mg/kg once a day 15 days
# Experimental: as §1, §2
# The total liver fat content and the plasma triglyceride level were evaluated in thin and obese Zucker rats after a 15-day treatment with OLHHA (5 mg/kg, once a day). The samples for lipid analysis were obtained 2 hours after the last injection.
# The Bligh & Dyer method (Bligh and Dyer, 1959) was followed for liver fat quantification. […] The fat content was expressed as % of tissue weight. […]
# [3] = test system: obese rats; test: Hepatic serum transaminase level in obese rats; format: in vivo, rat; settings: 5 mg/kg i.p. 15 days
# Experimental: as §1, §2
# Commercial kits were used for determining hepatic serum transaminases and they were analyzed in a Hitachi 737 automatic biochemistry analyzer.
# [4] = test system: obese rats; test: Circulating pro-inflammatory cytokine level in obese rats (ELISA); format: in vivo, rat; settings: 5 mg/kg i.p. 15 days
# Experimental: as §1, §2
# Circulating IL-6 and TNF-α levels were measured by means of ELISAs using commercial kits (Abcam).
# [5] = test system: obese rats; test: Kidney function-related plasma protein level in obese rats; format: in vivo, rat; settings: 5 mg/kg i.p. 15 days
# Experimental: as §1, §2
# Commercial kits were used for determining serum creatinine and urea and they were analyzed in a Hitachi 737 automatic biochemistry analyzer.
# [6] = test system: liver of Zucker rats; test: Gene expression (RT-qPCR) in the liver of Zucker rats; format: in vivo, rat
# Experimental: as §1, §2
# For isolating total RNA from the liver, the samples were homogenized in Trizol and then purified using Qiagen RNeasy Minelute Cleanup Kit (selectively eliminates most molecules smaller than 200 nucleotides), also including a DNAse treatment. The total mRNA concentration was quantified using a spectrophotometer. In all the cases, the A260/280 ratio was between 1.8 and 2. Complementary DNA synthesis was carried out by reverse transcription using the Transcriptor Reverse Transcriptase kit (Transcriptor RT, Roche Diagnostic). For real-time PCR (RT-qPCR), an ABI PRISM® 7300 Real-Time PCR System (Applied Biosystems) and TaqMan probes were used. The single-product amplification was confirmed by means of analyzing the melting curves. The values of each sample were normalized with respect to the beta-actin constitutive gene. The relative quantification was calculated by means of the ΔΔCt method and normalized to the control group. The Taqman probes were obtained from the rat genome database of Applied Biosystems (http://bioinfo.appliedbiosystems.com/genome-database/gene-expression.html): […]
# [7] = molecular target: T1, hERG channel (Homo sapiens, UniProt Q12809); test: hERG channel functional assay (FluxOR thallium fluorescence); format: cell-based; settings: HEK-293 cells expressing hERG
# T1 construct: expressed in transfected cells; host or cells: HEK293
# T1 sequence (Q12809 whole entry): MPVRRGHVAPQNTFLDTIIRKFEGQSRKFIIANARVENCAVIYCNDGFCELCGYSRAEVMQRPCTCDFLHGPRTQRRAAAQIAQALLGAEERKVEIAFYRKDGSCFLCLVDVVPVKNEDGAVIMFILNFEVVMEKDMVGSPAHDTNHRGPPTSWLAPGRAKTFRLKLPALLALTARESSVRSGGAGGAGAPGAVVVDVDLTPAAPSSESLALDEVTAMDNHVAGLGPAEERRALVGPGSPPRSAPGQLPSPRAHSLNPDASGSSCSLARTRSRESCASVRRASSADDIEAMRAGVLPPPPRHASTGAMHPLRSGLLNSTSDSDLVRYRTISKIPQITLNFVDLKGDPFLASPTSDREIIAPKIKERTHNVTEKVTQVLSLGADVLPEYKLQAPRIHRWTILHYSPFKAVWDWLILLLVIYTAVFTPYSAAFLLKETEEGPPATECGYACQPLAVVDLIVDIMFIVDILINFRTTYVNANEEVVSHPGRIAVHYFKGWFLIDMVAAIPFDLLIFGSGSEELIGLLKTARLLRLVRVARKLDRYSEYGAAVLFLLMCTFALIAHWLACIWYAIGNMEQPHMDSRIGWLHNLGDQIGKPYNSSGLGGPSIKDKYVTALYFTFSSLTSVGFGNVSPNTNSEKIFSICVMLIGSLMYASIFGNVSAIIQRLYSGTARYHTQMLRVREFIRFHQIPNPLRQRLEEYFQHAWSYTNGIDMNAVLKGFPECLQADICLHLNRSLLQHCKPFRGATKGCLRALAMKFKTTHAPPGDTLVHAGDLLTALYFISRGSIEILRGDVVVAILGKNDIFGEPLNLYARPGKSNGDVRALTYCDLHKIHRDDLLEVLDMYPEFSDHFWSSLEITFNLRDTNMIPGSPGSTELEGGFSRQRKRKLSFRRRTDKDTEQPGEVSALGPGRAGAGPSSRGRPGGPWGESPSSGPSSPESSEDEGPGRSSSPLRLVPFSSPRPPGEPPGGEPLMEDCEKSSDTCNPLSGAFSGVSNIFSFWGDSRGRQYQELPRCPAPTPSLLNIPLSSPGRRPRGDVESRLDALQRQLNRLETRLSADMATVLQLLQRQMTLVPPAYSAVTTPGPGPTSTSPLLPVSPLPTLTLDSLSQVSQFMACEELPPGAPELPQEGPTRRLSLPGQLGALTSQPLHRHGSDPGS
# Experimental: The hERG channel assay was used to identify if OLHHA may cause cardiotoxicity (FIG. 8). […] FluxOR™ is protected by AM groups which prevent fluorescence outside the cell. When it enters the cell, esterases in the cytosol remove the AM groups, and FluxOR™ will be converted to its active form in which it is capable of binding to thallium, which moves into the cytoplasm through the hERG channel, resulting in the emission of fluorescence. HEK293 cells expressing the hERG channel were seeded in poly-D-lysine-treated, black 96-well plates and incubated for 24 hours. […] Next, 20 μl of FluxOR™ dissolved in the assay buffer were added. The fluorochrome was incubated with the cells for 1 hour at room temperature. Next, the plates were washed with 50 μl of assay buffer and the compound OLHHA at a dilution of 1:200 (2 μl of OLHHA/400 μl of assay buffer) was added using an EP3 station. […] The plates were incubated with OLHHA for 30 minutes and then read in a […], which added 5 μl of stimulation buffer (Tl2SO4+K2SO4), and read the fluorescence for 120 s, which allowed analyzing channel kinetics.
# [8] = molecular target: CYP2C9 (Homo sapiens, UniProt P11712); test: P450 cytochrome inhibition fluorometric assay CYP2C9; format: in vitro ADME
# CYP2C9, sequence (P11712 whole entry): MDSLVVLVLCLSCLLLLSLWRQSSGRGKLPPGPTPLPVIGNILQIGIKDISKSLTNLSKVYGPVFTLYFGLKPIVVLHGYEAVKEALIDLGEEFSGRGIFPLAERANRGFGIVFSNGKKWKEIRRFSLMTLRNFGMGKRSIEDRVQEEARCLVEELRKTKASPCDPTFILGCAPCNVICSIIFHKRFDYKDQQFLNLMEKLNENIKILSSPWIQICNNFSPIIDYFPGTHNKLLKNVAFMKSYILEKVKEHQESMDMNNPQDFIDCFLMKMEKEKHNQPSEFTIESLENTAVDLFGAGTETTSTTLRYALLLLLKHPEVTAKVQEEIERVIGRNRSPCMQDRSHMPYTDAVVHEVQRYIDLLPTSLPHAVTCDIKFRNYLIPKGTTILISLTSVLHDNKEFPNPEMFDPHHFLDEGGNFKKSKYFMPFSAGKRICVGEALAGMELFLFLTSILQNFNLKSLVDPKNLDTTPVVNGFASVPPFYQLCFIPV
# Experimental: However, most human CYPs tolerate acetonitrile. […] OLHHA was tested in triplicate.
# [9] = test system: liver of obese Zucker rats; test: Histological evaluation of fatty liver and Caspase-3 in obese Zucker rats; format: in vivo, rat
# Experimental: as §1, §2
# The histological analysis of the livers of obese Zucker rats treated with the vehicle or with OLHHA confirmed the biochemistry total fat quantification results.
# [10] = test system: liver of obese Zucker rats; test: Protein levels of lipid metabolism enzymes in the liver of obese Zucker rats; format: in vivo, rat; settings: change seen in mRNA (reduction)
# Experimental: as §1, §2
# [11] = molecular target: CYP3A4 (Homo sapiens, UniProt P08684); test: biochemical
# CYP3A4, sequence (P08684 whole entry): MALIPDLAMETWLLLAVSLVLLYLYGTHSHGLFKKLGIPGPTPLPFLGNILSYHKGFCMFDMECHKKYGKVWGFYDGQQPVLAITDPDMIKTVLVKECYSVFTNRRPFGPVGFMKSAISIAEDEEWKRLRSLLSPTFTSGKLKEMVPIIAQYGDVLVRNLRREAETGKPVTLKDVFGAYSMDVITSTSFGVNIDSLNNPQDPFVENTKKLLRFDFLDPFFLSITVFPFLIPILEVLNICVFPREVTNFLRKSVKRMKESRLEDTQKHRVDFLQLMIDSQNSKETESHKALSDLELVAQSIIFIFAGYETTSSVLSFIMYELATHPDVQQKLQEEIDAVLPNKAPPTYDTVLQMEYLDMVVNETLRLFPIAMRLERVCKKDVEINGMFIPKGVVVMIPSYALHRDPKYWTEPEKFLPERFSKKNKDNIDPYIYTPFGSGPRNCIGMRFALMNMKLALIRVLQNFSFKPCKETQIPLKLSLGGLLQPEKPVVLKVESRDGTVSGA
# [12] = molecular target: CYP2D6 (Homo sapiens, UniProt P10635); test: biochemical
# CYP2D6, sequence (P10635 whole entry): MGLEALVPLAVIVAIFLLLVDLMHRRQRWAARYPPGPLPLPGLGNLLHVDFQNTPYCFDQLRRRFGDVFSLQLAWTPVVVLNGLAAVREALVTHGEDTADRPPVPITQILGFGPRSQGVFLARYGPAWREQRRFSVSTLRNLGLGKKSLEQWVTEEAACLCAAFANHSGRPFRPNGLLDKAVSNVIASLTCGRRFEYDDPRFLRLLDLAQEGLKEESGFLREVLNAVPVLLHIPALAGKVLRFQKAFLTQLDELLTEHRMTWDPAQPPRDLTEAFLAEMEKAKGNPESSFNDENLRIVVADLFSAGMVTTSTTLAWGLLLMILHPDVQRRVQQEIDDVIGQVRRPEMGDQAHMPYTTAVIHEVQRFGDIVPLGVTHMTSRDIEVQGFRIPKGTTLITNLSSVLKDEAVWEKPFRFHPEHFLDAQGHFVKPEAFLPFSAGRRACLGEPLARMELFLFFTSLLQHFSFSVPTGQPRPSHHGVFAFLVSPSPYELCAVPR
# [13] = obese Zucker rats liver, immunohistochemistry
# [14] = obese Zucker rats, chronic treatment, vs vehicle
smiles,measurement,setting,value
"CCCCCCCC/C=C\CCCCCCCC(=O)NC(C)Cc1ccc(O)c(O)c1 (stereo not shown) [OLHHA, N-(1-(3,4-dihydroxyphenyl)propan-2-yl)oleamide]",accumulated food intake,[1]; obese Zucker rats,did not cause any effect
same,body weight gain,[1]; obese Zucker rats,did not cause any effect
same,accumulated food intake,"[1]; thin Zucker rats, starting on the fifth day, vs vehicle",significant reduction
same,body weight gain,"[1]; thin Zucker rats, vs vehicle",significant inhibition
same,circulating triglycerides,[2]; five-fold increase in obese vs thin,prevented these increases
same,total liver fat content,[2]; three-fold increase in obese vs thin,prevented these increases
same,aspartate aminotransferase (AST) level,[3]; not statistically significant,reduction
same,alanine aminotransferase (ALT) level,[3]; statistically significant (p<0.05),reduction
same,gamma-glutamyl transpeptidase (GGt),[3]; vs vehicle,no effect was observed
same,plasma IL6 levels,[4],no changes were detected
same,TNF-α level,[4]; did not reach a degree of significance,drop
same,creatinine levels,[5],did not affect
same,urea levels,"[5]; vs vehicle, p<0.001",significant reduction
same,ACOX mRNA expression,[6]; 5 mg/kg i.p. 15 days,significant increase
same,FAS mRNA expression (fatty acid biosynthesis),[6]; 5 mg/kg i.p. 15 days,significant reduction
same,HMG-CoAR mRNA expression (cholesterol biosynthesis),[6]; 5 mg/kg i.p. 15 days,significant reduction
same,INSIG2 mRNA expression,[6]; 5 mg/kg i.p. 15 days,significantly increased
same,NAPE-PLD mRNA expression,[6]; 5 mg/kg i.p. 15 days,significantly reduced
same,L-FABP mRNA level,[6]; chronic treatment,increased
same,IC50,[7]; maximum concentration 150 μM,> 150 µM
same,IC50,"[8]; degree of inhibition, read-out: CYP2C9 Inhibitor category",1 to 10 µM
same,IC50,"[8]; fluorometric assay, maximum dose 105 μM, read-out: CYP2C9 IC50",6.8 µM
same,expression of activated Caspase-3,[9]; [13],reduced the expression
same,expression of total Caspase-3,[9]; [13],reduced the expression
same,apoptotic activity in liver,[9]; [14],reduction in apoptotic activity
same,liver fat content (hematoxylin-eosin and oil red staining),[9]; [14],reduction in liver fat content
same,FAS protein expression level,[10],confirmed at the protein expression level
same,HMG-CoAR protein expression level,[10],confirmed at the protein expression level
same,IC50,[11],14.8 µM and > 10 µM
same,IC50,[12],23.3 µM and > 10 µM
"CC(C)COCC(CN(Cc1ccccc1)c1ccccc1)N1CCCC1 (stereo not shown) [bepridil, reference compound]",IC50 at 30 min,"[7]; human, HEK293 cells expressing the hERG channel, pH 7.4, probe FluxOR fluorescent dye / thallium ions, standard control inhibitors, unit M",2.2 µM
